{"source": "PubChem BioAssay AID2060500", "about": "(Molecular Pharmacology Branch, DTP, NCI, 2025);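 also: spheroids exposed to drugs for 7 days before viability reading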;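 as to viability, T/C: 100% = DMSO vehicle control viability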", "tested_on": "596521-263-R-J1-PDC complex spheroids, viability % of control", "assay": "Anticancer human tumor 596521-263-R-J1-PDC patient-derived soft tissue sarcoma cell line growth inhibition [GQUAD]", "settings": "for IC50: curve of first compound; for viability, T/C: stronger effect = lower value", "how_it_was_run": "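Tumor cells were grown as complex spheroids with HUVEC endothelial cells and mesenchymal stem cells as stroma. G-quadruplex stabilizers were combined with targeted agents over half-log dilutions from near the clinical Cmax, or from 10 microM.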", "key": {"[1]": {"settings": "second compound 0.0316 µM, first compound 0.0316 µM"}, "[2]": {"settings": "second compound 0.0316 µM, first compound 0.1 µM"}, "[3]": {"settings": "second compound 0.0316 µM, first compound 0.316 µM"}, "[4]": {"settings": "second compound 0.0316 µM, first compound 1 µM"}, "[5]": {"settings": "second compound 0.0316 µM, first compound 3.16 µM"}, "[6]": {"settings": "second compound 0.0316 µM, first compound 10 µM"}, "[7]": {"settings": "second compound 0.1 µM, first compound 0.0316 µM"}, "[8]": {"settings": "second compound 0.1 µM, first compound 0.1 µM"}, "[9]": {"settings": "second compound 0.1 µM, first compound 0.316 µM"}, "[10]": {"settings": "second compound 0.1 µM, first compound 1 µM"}, "[11]": {"settings": "second compound 0.1 µM, first compound 3.16 µM"}, "[12]": {"settings": "second compound 0.1 µM, first compound 10 µM"}, "[13]": {"settings": "second compound 0.316 µM, first compound 0.0316 µM"}, "[14]": {"settings": "second compound 0.316 µM, first compound 0.1 µM"}, "[15]": {"settings": "second compound 0.316 µM, first compound 0.316 µM"}, "[16]": {"settings": "second compound 0.316 µM, first compound 1 µM"}, "[17]": {"settings": "second compound 0.316 µM, first compound 3.16 µM"}, "[18]": {"settings": "second compound 0.316 µM, first compound 10 µM"}, "[19]": {"settings": "second compound 1 µM, first compound 0.0316 µM"}, "[20]": {"settings": "second compound 1 µM, first compound 0.1 µM"}, "[21]": {"settings": "second compound 1 µM, first compound 0.316 µM"}, "[22]": {"settings": "second compound 1 µM, first compound 1 µM"}, "[23]": {"settings": "second compound 1 µM, first compound 3.16 µM"}, "[24]": {"settings": "second compound 1 µM, first compound 10 µM"}, "[25]": {"settings": "second compound 3.16 µM, first compound 0.0316 µM"}, "[26]": {"settings": "second compound 3.16 µM, first compound 0.1 µM"}, "[27]": {"settings": "second compound 3.16 µM, first compound 0.316 µM"}, "[28]": {"settings": "second compound 3.16 µM, first compound 1 µM"}, "[29]": {"settings": "second compound 3.16 µM, first compound 3.16 µM"}, "[30]": {"settings": "second compound 3.16 µM, first compound 10 µM"}, "[31]": {"settings": "second compound 10 µM, first compound 0.0316 µM"}, "[32]": {"settings": "second compound 10 µM, first compound 0.1 µM"}, "[33]": {"settings": "second compound 10 µM, first compound 0.316 µM"}, "[34]": {"settings": "second compound 10 µM, first compound 1 µM"}, "[35]": {"settings": "second compound 10 µM, first compound 3.16 µM"}, "[36]": {"settings": "second compound 10 µM, first compound 10 µM"}}}
{"smiles": "CCCS(=O)(=O)Nc1ccc(F)c(C(=O)c2c[nH]c3ncc(-c4ccc(Cl)cc4)cc23)c1F", "note": "+ CN(C)c1ccc(Nc2c3ccc(NC(=O)CCN4CCCC4)cc3nc3cc(NC(=O)CCN4CCCC4)ccc23)cc1", "values": [{"measurement": "IC50", "setting": "second compound 0.0316 µM", "result": 5.18, "unit": "µM"}, {"measurement": "IC50", "setting": "second compound 0.1 µM", "result": 5.51, "unit": "µM"}, {"measurement": "IC50", "setting": "second compound 0.316 µM", "result": 5.6, "unit": "µM"}, {"measurement": "IC50", "setting": "second compound 1 µM", "result": 6.65, "unit": "µM"}, {"measurement": "IC50", "setting": "second compound 3.16 µM", "result": 5.01, "unit": "µM"}, {"measurement": "IC50", "setting": "second compound 10 µM", "result": 1.82, "unit": "µM"}, {"measurement": "viability, T/C", "setting": "[1]", "result": 94.7, "unit": "%"}, {"measurement": "viability, T/C", "setting": "[2]", "result": 83.9, "unit": "%"}, {"measurement": "viability, T/C", "setting": "[3]", "result": 95.3, "unit": "%"}, {"measurement": "viability, T/C", "setting": "[4]", "result": 82.1, "unit": "%"}, {"measurement": "viability, T/C", "setting": "[5]", "result": 65.8, "unit": "%"}, {"measurement": "viability, T/C", "setting": "[6]", "result": 29.4, "unit": "%"}, {"measurement": "viability, T/C", "setting": "[7]", "result": 101, "unit": "%"}, {"measurement": "viability, T/C", "setting": "[8]", "result": 88.9, "unit": "%"}, {"measurement": "viability, T/C", "setting": "[9]", "result": 104, "unit": "%"}, {"measurement": "viability, T/C", "setting": "[10]", "result": 83, "unit": "%"}, {"measurement": "viability, T/C", "setting": "[11]", "result": 69.8, "unit": "%"}, {"measurement": "viability, T/C", "setting": "[12]", "result": 29.9, "unit": "%"}, {"measurement": "viability, T/C", "setting": "[13]", "result": 94.4, "unit": "%"}, {"measurement": "viability, T/C", "setting": "[14]", "result": 93.8, "unit": "%"}, {"measurement": "viability, T/C", "setting": "[15]", "result": 89.4, "unit": "%"}, {"measurement": "viability, T/C", "setting": "[16]", "result": 80, "unit": "%"}, {"measurement": "viability, T/C", "setting": "[17]", "result": 65.9, "unit": "%"}, {"measurement": "viability, T/C", "setting": "[18]", "result": 34.4, "unit": "%"}, {"measurement": "viability, T/C", "setting": "[19]", "result": 98.5, "unit": "%"}, {"measurement": "viability, T/C", "setting": "[20]", "result": 97.7, "unit": "%"}, {"measurement": "viability, T/C", "setting": "[21]", "result": 85.8, "unit": "%"}, {"measurement": "viability, T/C", "setting": "[22]", "result": 84.1, "unit": "%"}, {"measurement": "viability, T/C", "setting": "[23]", "result": 71, "unit": "%"}, {"measurement": "viability, T/C", "setting": "[24]", "result": 39.1, "unit": "%"}, {"measurement": "viability, T/C", "setting": "[25]", "result": 93.2, "unit": "%"}, {"measurement": "viability, T/C", "setting": "[26]", "result": 91.7, "unit": "%"}, {"measurement": "viability, T/C", "setting": "[27]", "result": 94, "unit": "%"}, {"measurement": "viability, T/C", "setting": "[28]", "result": 84.3, "unit": "%"}, {"measurement": "viability, T/C", "setting": "[29]", "result": 56.9, "unit": "%"}, {"measurement": "viability, T/C", "setting": "[30]", "result": 39.8, "unit": "%"}, {"measurement": "viability, T/C", "setting": "[31]", "result": 62.9, "unit": "%"}, {"measurement": "viability, T/C", "setting": "[32]", "result": 60.5, "unit": "%"}, {"measurement": "viability, T/C", "setting": "[33]", "result": 56.9, "unit": "%"}, {"measurement": "viability, T/C", "setting": "[34]", "result": 57.3, "unit": "%"}, {"measurement": "viability, T/C", "setting": "[35]", "result": 44.5, "unit": "%"}, {"measurement": "viability, T/C", "setting": "[36]", "result": 30.1, "unit": "%"}]}
{"smiles": "COc1cc(C2c3cc4c(cc3C(OC3OC5COC(C)OC5C(O)C3O)C3COC(=O)C23)OCO4)cc(OC)c1O", "note": "(centres undefined) + CN(C)c1ccc(Nc2c3ccc(NC(=O)CCN4CCCC4)cc3nc3cc(NC(=O)CCN4CCCC4)ccc23)cc1", "values": [{"measurement": "IC50", "setting": "second compound 0.0316 µM", "result": 3.59, "unit": "µM"}, {"measurement": "IC50", "setting": "second compound 0.1 µM", "result": 8.19, "unit": "µM"}, {"measurement": "IC50", "setting": "second compound 0.316 µM", "result": "> 10", "unit": "µM"}, {"measurement": "IC50", "setting": "second compound 1 µM", "result": 2.75, "unit": "µM"}, {"measurement": "IC50", "setting": "second compound 3.16 µM", "result": 3.12, "unit": "µM"}, {"measurement": "IC50", "setting": "second compound 10 µM", "result": 4.29, "unit": "µM"}, {"measurement": "viability, T/C", "setting": "[1]", "result": 101, "unit": "%"}, {"measurement": "viability, T/C", "setting": "[2]", "result": 96.2, "unit": "%"}, {"measurement": "viability, T/C", "setting": "[3]", "result": 84.5, "unit": "%"}, {"measurement": "viability, T/C", "setting": "[4]", "result": 59.8, "unit": "%"}, {"measurement": "viability, T/C", "setting": "[5]", "result": 56.8, "unit": "%"}, {"measurement": "viability, T/C", "setting": "[6]", "result": 40.3, "unit": "%"}, {"measurement": "viability, T/C", "setting": "[7]", "result": 111, "unit": "%"}, {"measurement": "viability, T/C", "setting": "[8]", "result": 96.6, "unit": "%"}, {"measurement": "viability, T/C", "setting": "[9]", "result": 85, "unit": "%"}, {"measurement": "viability, T/C", "setting": "[10]", "result": 70.6, "unit": "%"}, {"measurement": "viability, T/C", "setting": "[11]", "result": 57.8, "unit": "%"}, {"measurement": "viability, T/C", "setting": "[12]", "result": 48.5, "unit": "%"}, {"measurement": "viability, T/C", "setting": "[13]", "result": 96.4, "unit": "%"}, {"measurement": "viability, T/C", "setting": "[14]", "result": 107, "unit": "%"}, {"measurement": "viability, T/C", "setting": "[15]", "result": 82.7, "unit": "%"}, {"measurement": "viability, T/C", "setting": "[16]", "result": 67.2, "unit": "%"}, {"measurement": "viability, T/C", "setting": "[17]", "result": 56.8, "unit": "%"}, {"measurement": "viability, T/C", "setting": "[18]", "result": 47.8, "unit": "%"}, {"measurement": "viability, T/C", "setting": "[19]", "result": 95.9, "unit": "%"}, {"measurement": "viability, T/C", "setting": "[20]", "result": 92.8, "unit": "%"}, {"measurement": "viability, T/C", "setting": "[21]", "result": 94.6, "unit": "%"}, {"measurement": "viability, T/C", "setting": "[22]", "result": 72.3, "unit": "%"}, {"measurement": "viability, T/C", "setting": "[23]", "result": 47, "unit": "%"}, {"measurement": "viability, T/C", "setting": "[24]", "result": 46.6, "unit": "%"}, {"measurement": "viability, T/C", "setting": "[25]", "result": 95.9, "unit": "%"}, {"measurement": "viability, T/C", "setting": "[26]", "result": 94.9, "unit": "%"}, {"measurement": "viability, T/C", "setting": "[27]", "result": 85, "unit": "%"}, {"measurement": "viability, T/C", "setting": "[28]", "result": 63.9, "unit": "%"}, {"measurement": "viability, T/C", "setting": "[29]", "result": 49.7, "unit": "%"}, {"measurement": "viability, T/C", "setting": "[30]", "result": 46.6, "unit": "%"}, {"measurement": "viability, T/C", "setting": "[31]", "result": 68, "unit": "%"}, {"measurement": "viability, T/C", "setting": "[32]", "result": 63.6, "unit": "%"}, {"measurement": "viability, T/C", "setting": "[33]", "result": 67.1, "unit": "%"}, {"measurement": "viability, T/C", "setting": "[34]", "result": 55.5, "unit": "%"}, {"measurement": "viability, T/C", "setting": "[35]", "result": 54, "unit": "%"}, {"measurement": "viability, T/C", "setting": "[36]", "result": 42.9, "unit": "%"}]}
